For 20 compounds, EC50 and IC50 results are on record in patent US20240043427A1 (Gilead Sciences, Inc., priority 2020, published 2024).

The target in test [1] is T1, CD73 (Homo sapiens (Human), UniProt P21589). In words: MDA-MB-231 Cell Based CD73 Activity Assay (DMEM). The conditions noted are these: MDA-MB-231-GFP cells, DMEM medium with 10% human plasma, 200 uM AMP.
Test [2] deals with T1, CD73. Type of test: biochemical. The conditions noted are these: 1 mM NaH2PO4 in enzyme buffer, CD73 0.3 nM, AMP 15 uM.

T1 sequence (P21589 27-574): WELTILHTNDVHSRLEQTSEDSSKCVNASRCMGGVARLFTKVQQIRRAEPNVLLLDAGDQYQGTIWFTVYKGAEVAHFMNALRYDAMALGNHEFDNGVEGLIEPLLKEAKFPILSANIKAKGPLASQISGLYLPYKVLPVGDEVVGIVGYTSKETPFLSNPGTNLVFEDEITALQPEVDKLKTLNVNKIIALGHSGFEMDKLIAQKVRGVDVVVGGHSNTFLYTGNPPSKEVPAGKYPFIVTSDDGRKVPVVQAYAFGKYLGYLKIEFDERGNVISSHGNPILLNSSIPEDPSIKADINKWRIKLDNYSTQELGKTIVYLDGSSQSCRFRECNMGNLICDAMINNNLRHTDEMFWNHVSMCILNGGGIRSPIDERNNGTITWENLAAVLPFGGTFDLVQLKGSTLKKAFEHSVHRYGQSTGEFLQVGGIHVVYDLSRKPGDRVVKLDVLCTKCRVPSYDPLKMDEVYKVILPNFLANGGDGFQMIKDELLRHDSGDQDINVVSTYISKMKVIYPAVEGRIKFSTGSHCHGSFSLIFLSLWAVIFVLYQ

For `O=c1[nH]cc(-c2cc(N3CC4CC4C3)c3nccn3n2)c(=O)[nH]1` (stereo not shown) [Example 225, 5-(8-(3-azabicyclo[3.1.0]hexan-3-yl)imidazo[1,2-b]pyridazin-6-yl)pyrimidine-2,4(1H,3H)-dione], at CD73 [1], the EC50 (in general, the concentration at which the effect is half-maximal) is 106 nM. Further, the IC50 (usually the concentration needed to halve the response being measured) on CD73 [2] amounted to 15.2 nM.

Turning to `O=c1[nH]cc(-c2cc(NC3CCCC3)c3nccn3n2)c(=O)[nH]1` [Example 226, 5-(8-(cyclopentylamino)imidazo[1,2-b]pyridazin-6-yl)pyrimidine-2,4(1H,3H)-dione], at CD73 [1], the EC50 turned out to be 410 nM. Further, at CD73 [2], the IC50 is 121 nM.

`O=c1[nH]cc(-c2cc(NC3CCC(F)(F)C3)c3nccn3n2)c(=O)[nH]1` (stereo not shown) [Example 227, 5-(8-((3,3-difluorocyclopentyl)amino)imidazo[1,2-b]pyridazin-6-yl)pyrimidine-2,4(1H,3H)-dione]: the EC50 at CD73 [1] came out at 487 nM. Besides, the IC50 at CD73 [2] is above 250 nM.

At CD73 [1], `CC1(C)C2CN(c3cc(-c4c[nH]c(=O)[nH]c4=O)nn4ccnc34)CC21` (stereo not shown) [Example 228, 5-(8-(6,6-dimethyl-3-azabicyclo[3.1.0]hexan-3-yl)imidazo[1,2-b]pyridazin-6-yl)pyrimidine-2,4(1H,3H)-dione] showed an EC50 of 146 nM. For the same compound, the IC50 against CD73 [2] is 31.2 nM.

For the compound `O=c1[nH]cc(-c2cc(N3CC[C@H](C(F)F)C3)c3nccn3n2)c(=O)[nH]1` [Example 229, (S)-5-(8-(3-(difluoromethyl)pyrrolidin-1-yl)imidazo[1,2-b]pyridazin-6-yl)pyrimidine-2,4(1H,3H)-dione], the EC50 on CD73 [1] turned out to be 175 nM. Besides, inhibition against CD73 [2] was half-maximal at 56.9 nM (IC50).

`O=c1[nH]cc(-c2cc(N3CC[C@@H](C(F)F)C3)c3nccn3n2)c(=O)[nH]1` [Example 230, (R)-5-(8-(3-(difluoromethyl)pyrrolidin-1-yl)imidazo[1,2-b]pyridazin-6-yl)pyrimidine-2,4(1H,3H)-dione] displayed an EC50 at CD73 [1] of 64.7 nM. Besides, the IC50 against CD73 [2] was 39.5 nM.

The compound `N#Cc1ccc(OC2CN(c3cc(-c4c[nH]c(=O)[nH]c4=O)nn4ccnc34)CC2(F)F)cc1` (stereo not shown) [Example 231, 4-((1-(6-(2,4-dioxo-1,2,3,4-tetrahydropyrimidin-5-yl)imidazo[1,2-b]pyridazin-8-yl)-4,4-difluoropyrrolidin-3-yl)oxy)benzonitrile] displayed an EC50 at CD73 [1] of 2 nM. Also, the IC50 at CD73 [2] was 1.62 nM.

Compound `O=c1[nH]cc(-c2cc(N3CC(Oc4ccc(C(F)F)cn4)C(F)(F)C3)c3nccn3n2)c(=O)[nH]1` (stereo not shown) [Example 232, 5-(8-(4-((5-(difluoromethyl)pyridin-2-yl)oxy)-3,3-difluoropyrrolidin-1-yl)imidazo[1,2-b]pyridazin-6-yl)pyrimidine-2,4(1H,3H)-dione] had an EC50 on CD73 [1] of 6.18 nM. At CD73 [2], this compound registered an IC50 of 2.15 nM.

With `O=C(Nc1ccccc1F)OC1CN(c2cc(-c3c[nH]c(=O)[nH]c3=O)nn3ccnc23)CC1(F)F` (stereo not shown) [Example 233, 1-(6-(2,4-dioxo-1,2,3,4-tetrahydropyrimidin-5-yl)imidazo[1,2-b]pyridazin-8-yl)-4,4-difluoropyrrolidin-3-yl (2-fluorophenyl)carbamate], on CD73 [1], the EC50 is 0.8 nM. The compound also registered an IC50 against CD73 [2] of 1.17 nM.

For the compound `O=C(Nc1ccccc1F)OCC(F)(F)COc1cc(-c2c[nH]c(=O)[nH]c2=O)nn2ccnc12` [Example 234, 3-((6-(2,4-dioxo-1,2,3,4-tetrahydropyrimidin-5-yl)imidazo[1,2-b]pyridazin-8-yl)oxy)-2,2-difluoropropyl (2-fluorophenyl)carbamate], the response on CD73 [1] was half-maximal at 6.56 nM (EC50). Besides, at CD73 [2], 0.62 nM corresponded to half-maximal inhibition (IC50).

On CD73 [1], `O=C(Nc1ccc(F)cc1F)O[C@H]1CN(c2cc(-c3c[nH]c(=O)[nH]c3=O)nn3ccnc23)CC1(F)F` [Example 235, (S)-1-(6-(2,4-dioxo-1,2,3,4-tetrahydropyrimidin-5-yl)imidazo[1,2-b]pyridazin-8-yl)-4,4-difluoropyrrolidin-3-yl (2,4-difluorophenyl)carbamate] registered an EC50 of 0.82 nM. This compound also yielded an IC50 against CD73 [2] of 0.96 nM.

With `Cc1ccc(NC(=O)O[C@H]2CN(c3cc(-c4c[nH]c(=O)[nH]c4=O)nn4ccnc34)CC2(F)F)c(F)c1` [Example 236, (S)-1-(6-(2,4-dioxo-1,2,3,4-tetrahydropyrimidin-5-yl)imidazo[1,2-b]pyridazin-8-yl)-4,4-difluoropyrrolidin-3-yl (2-fluoro-4-methylphenyl)carbamate], a half-maximal response on CD73 [1] (EC50) required 3.04 nM. This compound also registered an IC50 at CD73 [2] of 1.02 nM.

Consider `N#Cc1ccc(O[C@H]2CN(c3cc(-c4c[nH]c(=O)[nH]c4=O)nn4ccnc34)CC2(F)F)cc1` [Example 237, (S)-4-((1-(6-(2,4-dioxo-1,2,3,4-tetrahydropyrimidin-5-yl)imidazo[1,2-b]pyridazin-8-yl)-4,4-difluoropyrrolidin-3-yl)oxy)benzonitrile], for which, on CD73 [1], the EC50 turned out to be 1.1 nM. Besides, half-maximal inhibition against CD73 [2] (IC50) required 0.7 nM.

The compound `O=C(Nc1ccc(F)cc1F)OCC(F)(F)COc1cc(-c2c[nH]c(=O)[nH]c2=O)nn2ccnc12` [Example 238, 3-((6-(2,4-dioxo-1,2,3,4-tetrahydropyrimidin-5-yl)imidazo[1,2-b]pyridazin-8-yl)oxy)-2,2-difluoropropyl (2,4-difluorophenyl)carbamate] showed an EC50 at CD73 [1] of 5.18 nM. This compound also showed an IC50 on CD73 [2] of 0.36 nM.

`O=C(Nc1c(F)cc(F)cc1F)O[C@H]1CN(c2cc(-c3c[nH]c(=O)[nH]c3=O)nn3ccnc23)CC1(F)F` [Example 239, (S)-1-(6-(2,4-dioxo-1,2,3,4-tetrahydropyrimidin-5-yl)imidazo[1,2-b]pyridazin-8-yl)-4,4-difluoropyrrolidin-3-yl (2,4,6-trifluorophenyl)carbamate]: the response on CD73 [1] was half-maximal at 1.17 nM (EC50). Further, on CD73 [2], the IC50 is 0.86 nM.

At CD73 [1], `O=c1[nH]cc(-c2cc(N3CC[C@@H](Oc4ccc(F)cc4)C3)c3nccn3n2)c(=O)[nH]1` [Example 240, (R)-5-(8-(3-(4-fluorophenoxy)pyrrolidin-1-yl)imidazo[1,2-b]pyridazin-6-yl)pyrimidine-2,4(1H,3H)-dione] registered an EC50 of 3.79 nM. This compound also displayed an IC50 against CD73 [2] of 0.28 nM.

Turning to `O=C(Nc1ccccc1F)O[C@H]1CN(c2cc(-c3c[nH]c(=O)[nH]c3=O)nn3ccnc23)CC1(F)F` [Example 241, (S)-1-(6-(2,4-dioxo-1,2,3,4-tetrahydropyrimidin-5-yl)imidazo[1,2-b]pyridazin-8-yl)-4,4-difluoropyrrolidin-3-yl (2-fluorophenyl)carbamate], the midpoint of the response on CD73 [1], the EC50, lay at 1.41 nM. Also, the IC50 on CD73 [2] turned out to be 2.13 nM.

Consider `O=c1[nH]cc(-c2cc(N3CCC(Oc4ccccc4)C3)c3nccn3n2)c(=O)[nH]1` (stereo not shown) [Example 242, 5-(8-(3-phenoxypyrrolidin-1-yl)imidazo[1,2-b]pyridazin-6-yl)pyrimidine-2,4(1H,3H)-dione], for which the EC50 on CD73 [1] came to 2.43 nM. In addition, on CD73 [2], it took 0.22 nM to reach half-maximal inhibition (IC50).

On CD73 [1], `CC1(O)CCN(c2cc(-c3c[nH]c(=O)[nH]c3=O)nn3ccnc23)C1` (stereo not shown) [Example 243, 5-(8-(3-hydroxy-3-methylpyrrolidin-1-yl)imidazo[1,2-b]pyridazin-6-yl)pyrimidine-2,4(1H,3H)-dione] registered an EC50 of 56.1 nM. Also, at CD73 [2], it took 22.2 nM to reach half-maximal inhibition (IC50).

Turning to `O=c1[nH]cc(-c2cc(N3CC(F)(C(F)(F)F)C3)n3nccc3n2)c(=O)[nH]1` [Example 244, 5-(7-(3-fluoro-3-(trifluoromethyl)azetidin-1-yl)pyrazolo[1,5-a]pyrimidin-5-yl)pyrimidine-2,4(1H,3H)-dione], the EC50 at CD73 [1] stood at 574 nM. On CD73 [2], the IC50 came to 108 nM.
